Laboratory results as given in US20250186442A1, “Obicetrapib and Ezetimibe Combination Treatment and Fixed Dose Pharmaceutical Compositions” (NewAmsterdam Pharma B.V., priority 2022, published 2025).

Assays:
[1] = Kinetic solubility in FaSSIF (pH 6.5) at 37° C.; type: physicochemical; conditions: FaSSIF pH 6.5, 37° C., as obicetrapib free acid
Source text: (§1) The amorphous form has a higher kinetic solubility and dissolution rate than the crystalline form (and by extension obicetrapib itself). Both crystalline and amorphous obicetrapib hemicalcium kinetic solubility determinations were made in biorelevant media at different pHs, namely at about 5.0 (FeSSIF conditions) and at pH of about 6.5 (FaSSIF) conditions as set forth in Example 11.28.
The concentrations in Table X are those of obicetrapib (i.e., the free acid).
(§2) The solids were magnetically stirred at 600 RPM in a shaker bath and samples were drawn with a 1.0 ml syringe at T=15 mins, 30 mins, 60 mins, 90 mins and 120 mins. The solubility was measured using HPLC method provided by the client. The compound was added to 4.0 ml glass vials at approximately 20.0 mg/ml. Samples were agitated with a vortex mixer for about 5 minutes to ensure the presence of undissolved excess powder. The sample collected at each time point was centrifuged at 1200 RPM, filtered with 0.45 μm Polytetrafluoroethylene (PTFE) filters and diluted with methanol before HPLC analysis. In order to minimize the effect of potential analyte adsorption on the filter, the initial 0.5 mL of supernatant passing through the filter was discarded prior to collecting sample for HPLC analysis.

[2] = Kinetic solubility in FeSSIF (pH 5.0) at 37° C.; type: physicochemical; conditions: FeSSIF pH 5.0, 37° C., as obicetrapib free acid
Source text: as §1
The concentrations in Table W are those of obicetrapib (i.e., the free acid).
as §2

[3] = ROSE2 phase 2b clinical trial - safety and tolerability (adverse events); type: in vivo, human; conditions: Safety Population
Protocol: (§3) The exploratory objectives of this study include the following: • To evaluate the effect of obicetrapib 10 mg+ezetimibe 10 mg combination therapy and obicetrapib 10 mg monotherapy, when used as an adjunct to high-intensity statin therapy, on non-high-density lipoprotein cholesterol (non-HDL-C), very low-density lipoprotein cholesterol (VLDL-C), HDL-C, TG, ApoE, Lp(a), and HDL-ApoE at Day 84; • To evaluate the effect of obicetrapib 10 mg+ezetimibe 10 mg combination therapy and obicetrapib 10 mg monotherapy, when used as an adjunct to high-intensity statin therapy, on the proportion of participants achieving predefined LDL-C targets at Day 84; • To assess the mean trough plasma levels of obicetrapib 10 mg+ezetimibe 10 mg combination therapy and obicetrapib 10 mg monotherapy at steady state on Days 28, 84, and 112; and • To evaluate the safety and tolerability profiles of obicetrapib 10 mg+ezetimibe 10 mg combination therapy and obicetrapib 10 mg monotherapy, when used as an adjunct to high-intensity statin therapy, assessed by clinical laboratory values and incidence of AEs.
The safety and tolerability profile of obicetrapib 10 mg, both in combination with ezetimibe 10 mg and as monotherapy, will be assessed by clinical laboratory assessments (chemistry and hematology), vital signs, physical examinations, and the incidence of AEs.
An AE can therefore be any unfavorable and/or unintended sign (including an abnormal laboratory finding), symptom, or disease temporally associated with the use of an investigational medicinal product, whether or not related to the investigational medicinal product. All AEs, including observed or volunteered problems, complaints, or symptoms, are to be recorded on the appropriate eCRF.
AEs, which include clinical laboratory assessment variables, will be monitored and documented from the time of first dose of study treatment until completion of Visit 5. Participants should be instructed to report any AE that they experience to the Investigator, whether or not they think the event is due to study drug. Beginning at the date of the first dose of study treatment, Investigators should make an assessment for AEs at each visit and record the event on the appropriate AE eCRF.
The Investigator will assess the severity (intensity) of each AE as mild, moderate, or severe, and will also categorize each AE as to its potential relationship to study drug using the categories of yes or no.
• Mild—An event that is easily tolerated and generally not interfering with normal daily activities. • Moderate—An event that is sufficiently discomforting to interfere with normal daily activities. • Severe—An event that is incapacitating with inability to work or perform normal daily activities.
An AE or adverse reaction is considered serious if, in the view of either the Investigator or Sponsor, it results in any of the following outcomes: • Death; • A life-threatening AE;
The Safety Population will include all participants who receive at least 1 dose of any study drug. Treatment classification will be based on the actual treatment received. The Safety Population will be the primary population used for the safety analyses.

[4] = system: Lp(a); assay: ROSE2 phase 2b clinical trial - Lp(a); type: in vivo, human; conditions: Exploratory Population
Protocol: as §3
This study will be a placebo-controlled, double-blind, randomized, Phase 2 study to evaluate the efficacy, safety, and tolerability of obicetrapib 10 mg, both in combination with ezetimibe 10 mg and as monotherapy, as an adjunct to high-intensity statin therapy. This study will take place at approximately 20 sites in the United States.
Up to 2 weeks after the Screening Visit, participants will return to the site on Day 1 (Visit 2) and confirm study eligibility before being randomized and beginning treatment. Approximately 114 eligible participants (38 participants per treatment group) will be randomized in a 1:1:1 ratio to 1 of the following treatment groups: • Combination therapy: Obicetrapib 10 mg+ezetimibe 10 mg (administered as one 10 mg obicetrapib tablet and one 10 mg ezetimibe capsule); • Obicetrapib monotherapy: Obicetrapib 10 mg (administered as one 10 mg obicetrapib tablet and 1 placebo capsule); or • Placebo (administered as 1 placebo tablet and 1 placebo capsule).
The exploratory efficacy endpoints include the following: • Percent change from Day 1 to Day 84 in non-HDL-C, VLDL-C, HDL-C, TG, ApoE, Lp(a), and HDL-ApoE for the obicetrapib 10 mg+ezetimibe 10 mg combination treatment group compared with the placebo group and for the obicetrapib 10 mg monotherapy treatment group compared with the placebo group; and • Proportion of participants at Day 84 that achieve LDL-C<2.6 mmol/L (<100 mg/dL), LDL-C<1.8 mmol/L (<70 mg/dL), and LDL-C<1.3 mmol/L (<50 mg/dL) for the obicetrapib 10 mg+ezetimibe 10 mg combination treatment group compared with the placebo group and for the obicetrapib 10 mg monotherapy treatment group compared with the placebo group.
Blood samples for the lipid profile must be obtained under fasting conditions (ie, after the participant has fasted for approximately 10 hours). For the purposes of this study, fasting will be defined as nothing by mouth except water and any essential medications. If a participant is not fasting, the Investigator should reschedule the visit as soon as possible. LDL-C level will be calculated using the Friedewald equation unless TG≥400 mg/dL or LDL-C≤50 mg/dL; in both cases, LDL-C level will be measured directly by preparative ultracentrifugation, also referred to as beta quantification. Additionally, LDL-C will be measured by preparative ultracentrifugation, also referred to as beta quantification, at baseline (Visit 2) and at the end of the 12-week Treatment Period (Visit 4) for all participants.
The Modified ITT (mITT) Population will include all participants in the ITT Population who receive at least 1 dose of any study drug and have a baseline value for the LDL-C assessment. […]

CCOC(=O)N1c2ccc(C(F)(F)F)cc2[C@@H](N(Cc2cc(C(F)(F)F)cc(C(F)(F)F)c2)c2ncc(OCCCC(=O)[O-])cn2)C[C@H]1CC.CCOC(=O)N1c2ccc(C(F)(F)F)cc2[C@@H](N(Cc2cc(C(F)(F)F)cc(C(F)(F)F)c2)c2ncc(OCCCC(=O)[O-])cn2)C[C@H]1CC.[Ca+2] [Amorphous obicetrapib hemicalcium Batch #1]
Concentration in Solution ([1]; 15 mins): 60 µg/mL
Concentration in Solution ([1]; 30 mins): 99 µg/mL
Concentration in Solution ([1]; 60 mins): 163 µg/mL
Concentration in Solution ([1]; 90 mins): 201 µg/mL
Concentration in Solution ([1]; 120 mins): 244 µg/mL
Concentration in Solution ([2]; 15 mins): 520 µg/mL
Concentration in Solution ([2]; 30 mins): 661 µg/mL
Concentration in Solution ([2]; 60 mins): 675 µg/mL
Concentration in Solution ([2]; 90 mins): 696 µg/mL
Concentration in Solution ([2]; 120 mins): 675 µg/mL

CCOC(=O)N1c2ccc(C(F)(F)F)cc2[C@@H](N(Cc2cc(C(F)(F)F)cc(C(F)(F)F)c2)c2ncc(OCCCC(=O)[O-])cn2)C[C@H]1CC.CCOC(=O)N1c2ccc(C(F)(F)F)cc2[C@@H](N(Cc2cc(C(F)(F)F)cc(C(F)(F)F)c2)c2ncc(OCCCC(=O)[O-])cn2)C[C@H]1CC.[Ca+2] [Amorphous obicetrapib hemicalcium Batch #2]
Concentration in Solution ([1]; 15 mins): 90 µg/mL
Concentration in Solution ([1]; 30 mins): 140 µg/mL
Concentration in Solution ([1]; 60 mins): 229 µg/mL
Concentration in Solution ([1]; 90 mins): 293 µg/mL
Concentration in Solution ([1]; 120 mins): 387 µg/mL
Concentration in Solution ([2]; 15 mins): 502 µg/mL
Concentration in Solution ([2]; 30 mins): 618 µg/mL
Concentration in Solution ([2]; 60 mins): 628 µg/mL
Concentration in Solution ([2]; 90 mins): 658 µg/mL
Concentration in Solution ([2]; 120 mins): 642 µg/mL

CCOC(=O)N1c2ccc(C(F)(F)F)cc2[C@@H](N(Cc2cc(C(F)(F)F)cc(C(F)(F)F)c2)c2ncc(OCCCC(=O)O)cn2)C[C@H]1CC [Obicetrapib 10 mg]
Any TEAEs by maximum severity: Mild, (%) ([3]; (%)): (20.5) %
Any TEAEs by maximum severity: Moderate, (%) ([3]; (%)): (7.7) %
Any TEAEs by maximum severity: Severe, (%) ([3]; (%)): (10.3) %
Any TEAEs leading to death, (%) ([3]; (%)): (0.0) %
Any serious TEAEs (TESAEs), (%) ([3]; (%)): (5.1) %
Any study drug-related TEAEs by maximum severity: Mild, (%) ([3]; (%)): (10.3) %
Any study drug-related TEAEs by maximum severity: Moderate, (%) ([3]; (%)): (5.1) %
Any study drug-related TEAEs by maximum severity: Severe, (%) ([3]; (%)): (5.1) %
Any study drug-related TEAEs leading to discontinuation of study drug, (%) ([3]; (%)): (5.1) %
Any study drug-related TEAEs, (%) ([3]; (%)): (2.6) %
Any study drug-related TESAEs, (%) ([3]; (%)): (2.6) %
Any treatment-emergent AEs (TEAEs), (%) ([3]; (%)): (20.5) %
Any TEAEs leading to discontinuation of study drug, (%) ([3]; (%), first line with this label (r25)): (0.0) %
Any TEAEs leading to discontinuation of study drug, (%) ([3]; (%), last line of the table (r40)): (0.0) %
Any TEAEs by maximum severity: Mild, e ([3]; column e): 20
Any TEAEs leading to death, e ([3]; column e): 0
Any serious TEAEs (TESAEs), e ([3]; column e): 2
Any study drug-related TEAEs by maximum severity: Mild, e ([3]; column e): 4
Any study drug-related TEAEs leading to discontinuation of study drug, e ([3]; column e): 5
Any study drug-related TESAEs, e ([3]; column e): 1
Any treatment-emergent AEs (TEAEs), e ([3]; column e): 20
Any TEAEs leading to discontinuation of study drug, e ([3]; column e, last line of the table (r40)): 0
Lp(a) Day 84, Mean ([4]; Day 84): 74.75 nmol/L
Lp(a) Day 84, Median ([4]; Day 84): 20.85 nmol/L
Lp(a) Day 84 Maximum ([4]; Day 84): 327.7 nmol/L
Lp(a) Day 84 Minimum ([4]; Day 84): 2.8 nmol/L
Lp(a) Change from Baseline to Day 84, Mean [4]: -27.66 nmol/L
Lp(a) Change from Baseline to Day 84, Median [4]: -10.95 nmol/L
Lp(a) Change from Baseline to Day 84 Maximum [4]: 3.0 nmol/L
Lp(a) Change from Baseline to Day 84 Minimum [4]: -148.8 nmol/L
Lp(a) Percent Change from Baseline to Day 84 (%) Maximum [4]: 103.4%
Lp(a) Percent Change from Baseline to Day 84 (%) Minimum [4]: −84.6%
Lp(a) Percent Change from Baseline to Day 84 (%), Mean [4]: −24.44%
Lp(a) Percent Change from Baseline to Day 84 (%), Median [4]: −22.75%
